Test results reported in patent US12616681B2, “Compositions and methods for treating renal injury” (priority 2019, dated 2026).

Columns and labels:
mice = assay: Induction of CIAKI by intravenous contrast media in mice; format: in vivo, C57/BL6 mice; details: 10 gI/kg iv
Description: The two different […] in terms of viscosity and osmolality were administered intravenously to 5 mice for each group. Ten grams of iodine per body weight (gI/kg) of each CM was injected by a 26-gauge syringe through the tail vein. The blood samples for the analysis of functional assessment of kidney injury such as Cr, NGAL, and KIM-1 were taken at 48 h after administration (FIGS. 10(A, B)).

[1] = test system: contrast-induced acute kidney injury (CIAKI) mice; assay: CIAKI mouse model: renal function (serum creatinine, NGAL, KIM-1); format: in vivo, C57/BL6 mice
Description: Female mice were injected with 10 gI/kg of Visipaque (iodixanol) via the tail vein. […] For inhibition of the EP4s, mice were treated with 0.2 mg/kg/day of ONO-AE3-208 by subcutaneous injection for 14 days. Serum and kidney tissue were collected 48 h after the iodixanol injection.
Renal function was assessed by determining the serum levels of creatinine (Arbor Assays, Ann Arbor, MI, USA), NGAL (R&D Systems), and KIM-1 (R&D Systems) at 48 h after the iodixanol injection.

[2] = test system: human renal proximal tubular epithelial cells (hRPTECs); assay: hRPTEC cell viability (MTT assay) with iodixanol; format: cell-based; details: iodixanol 50 mgI/mL, 24 h; PGE1 100 ng/mL, PGE2 100 nM vs CM vehicle; CM vs normal control
Description: 3-(4,5-Dimethyl thiazol-2-yl)-2,5-diphenyl tetrazolium bromide (MTT) assay was used to assess cell viability. The hRPTECs were cultivated in 96-well plates at a density of 10^5 cells/mL and then incubated for 24 h. […] Then, 10 µM MTT (Sigma-Aldrich) was added to each well for an additional 4 h. The blue MTT formazan precipitate was dissolved in 100 mL dimethyl sulfoxide. The absorbance at 540 nm was measured with a multi-well plate reader. Cell viability was expressed as a percentage of the no-treatment cells, as the mean value±standard deviation of the six independent experiments.

[3] = test system: human renal proximal tubular epithelial cells (hRPTECs); assay: hRPTEC apoptosis by flow cytometry with iodixanol; format: cell-based
Description: Human renal proximal tubular epithelial cells (hRPTECs) were purchased from the American Type Culture Collection (#PCS-400-010TM, Manassas, VA, USA). These cells were grown in 75 cm^2 flasks in Renal Epithelial Cell Basal Medium (PCS-400-030TM, ATCCVR) supplemented with Renal Epithelial Cell Growth Kit (PCS-400-040TM, ATCCVR).
After the treatment described in the section above, the hRPTECs were pelleted by centrifugation at 1800 rpm for 10 min and incubated with annexin V fluorescein isothiocyanate and propidium iodide using an Apoptosis Detection Kit I (#556547, BD Biosciences, San Jose, CA, USA) according to the manufacture's instruction. Then quantification was conducted using a FACSC flow cytometer with Cell Quest software (BD Biosciences).

[4] = test system: contrast-induced acute kidney injury (CIAKI) mice; assay: CIAKI mouse model: necrotic and apoptotic cell death, gross findings; format: in vivo, C57/BL6 mice; details: 48 h after CM
Description: Kidneys were harvested at 48 h after the CM injection, fixed in 4% phosphate-buffered formalin, and embedded in paraffin. To evaluate necrosis, […] paraffin sections were stained with hematoxylin and eosin. Tubular injury was scored semi-quantitatively according to a system by a pathologist who examined at least 20 separate fields (400× magnification) in the outer medulla, which is the zone most sensitive to ischemic injury. The scoring system was as follows: 0, no damage; 1, patchy isolated unicellular necrosis; 2, tubular necrosis <25%; 3, tubular necrosis 25-50%; and 4, tubular necrosis >50%. At least 20 consecutive high-power fields per section were scored by two operators blind to the details of the experiment. To analyze the frequency of apoptosis, […] paraffin sections were subjected to terminal deoxynucleotidyl transferase-mediated dUTP nick-end labeling (TUNEL) assay (Millipore, Temecula, CA, USA) according to the manufacturer's protocol. Four […] paraffin sections were incubated with the TUNEL reaction mixture at 37° C. for 1 h, followed by incubation with a horseradish peroxidase-conjugated detection antibody. The signals were visualized using diaminobenzidine (Sigma-Aldrich). After counterstaining with Mayer's hematoxylin, TUNEL-positive cells were counted in at least five separate fields (640× magnification) in the outer medulla, and the apoptosis index (%, number of apoptosis cells/total number of cells) was calculated using GENASIS software.

[5] = test system: contrast-induced acute kidney injury (CIAKI) mice; assay: CIAKI mouse model: renal blood flow (laser Doppler flux); format: in vivo, C57/BL6 mice
Description: Total RBF was assessed by measuring renal Doppler flux using noninvasive laser Doppler flowmetry (PeriFlux System 5000, Perimed AB, Sweden). Laser Doppler probes were placed on the kidney surface to measure the renal flux. The flux was measured 48 h after CM administration. The relative increase represented the percentage increase in renal blood flow from baseline to peak for each test. Statistical significance was set as p<0.05.

[6] = test system: contrast-induced acute kidney injury (CIAKI) mice; assay: CIAKI mouse model: AMP and adenosine levels in renal tissue; format: in vivo, C57/BL6 mice; details: 48 h after CM
Description: 48 h after CM administration, serum and kidney tissues were harvested. The adenosine levels in the serum and kidney tissues were measured using high-performance liquid chromatography.

[7] = rapidly degraded by 15-PGDH; cited from earlier work
[8] = test system: mice with ischemic AKI (bilateral renal IRI); assay: Renal IRI (ischemic AKI) mouse model: renal function markers; format: in vivo, C57/BL6 mice
Description: Briefly, mice were anesthetized with isoflurane using a vaporizer, and bilateral renal arteries were clamped for 30 min (2, 49). After the ischemic time, clamps were released to induce blood reperfusion. […] Serum and kidney tissue were collected 24 h after renal IRI. […] After reperfusion for 24 h, kidney tissues (˜20 mg) were homogenized in cold PBS containing indomethacin (10 μg/mL) and then centrifuged for 10 min at 12,000 rpm. Protein concentrations of supernatant were determined by BCA assay (ThermoFisher Scientific, Rockford, IL). The PGE2 level was measured using a PGE2 ELISA kit (R&D Systems, Minneapolis, MN) in triplicate. PGE2 levels were expressed as nanograms of PGE2 per milligram of protein. Renal function was assessed by determining the serum levels of blood urea nitrogen (BUN; Abcam), serum creatinine (Agilent 6410 LC-MS/MS, Agilent, Santa Clara, CA), lipocalin-2 (R&D Systems), and kidney injury molecule-1 (KIM-1; R&D Systems) after reperfusion for 24 h. Measurement of serum creatinine was by HPLC. Serum creatinine was assessed using an Agilent 6410 LC-MS/MS system coupled with an Agilent 1200 series HPLC system (Agilent). […] The mixture was centrifuged at 13,000 rpm for 10 min after vigorous vortex, and 1 μL of supernatant was then injected into the LC-MS/MS system. The chromatography separation was performed on a Hypersil GOLD C18 column (150×2.1 mm, 3 m, Thermo Scientific) using a mobile phase of 0.1% formic acid solution and acetonitrile [70:30 (vol/vol)]. The flow rate was 0.2 mL/min. Electrospray ionization was performed in the positive ion mode. The capillary voltage was set at 4,000 V. Nitrogen as the nebulizing gas was set at 15 psi, and the drying gas temperature was set at 300° C., with a flow rate of 6 L/min. The multiple-reaction monitoring mode using specific precursor/production transition was used for quantification. […] The peak areas for all analytes were integrated automatically using Agilent Mass Hunter Analysis software (version B.01.04).

[9] = test system: mice with ischemic AKI (bilateral renal IRI); assay: Renal IRI model: necrotic and apoptotic cell death, gross pathology; format: in vivo, C57/BL6 mice; details: 24 h after renal IRI; 5 mg/kg ip three times
From the text: To evaluate necrosis, 5-μm-thick paraffin sections were stained with hematoxylin and eosin. Tubular injury of individual slides was scored semi-quantitatively according to a scoring system by a pathologist in a blinded manner. The scoring system was as follows: 0, no damage; 1, patchy isolated unicellular necrosis; 2, tubular necrosis <25%; 3, tubular necrosis 25-50%; and 4, tubular necrosis >50%. To analyze the frequency of apo ptosis, 5-μm-thick paraffin sections were subjected to a TUNEL assay (Millipore, Temecula, CA) according to the manufacturer's protocol. TUNEL-positive cells were counted in at least five separate fields (64 magnification) in the outer medulla, and the apoptosis index (in %, number of apoptosis cells/total number of cells) was calculated using GENASIS software.

[10] = test system: mice with ischemic AKI (bilateral renal IRI); assay: Renal IRI model: proinflammatory cytokines and HMGB1; format: in vivo, C57/BL6 mice; details: 24 h after renal IRI, vs IRI-vehicle mice
Description: Inflammatory cytokine mRNA and protein levels were measured by real-time PCR and ELISA. Kidney tissue and serum were harvested after reperfusion for 24 h. Total RNA was extracted from frozen kidney tissue using TRIzol reagent (ThermoFisher Scientific) according to the manufacturer's protocol. RNA was converted to cDNA using oligo-dT primers. IL-17, TNF-α, and IL-1b mRNA levels were determined by real-time PCR. Serum IL-17 (R&D Systems), TNF-α (R&D Systems), and IL-10 (R&D Systems) were measured using commercial ELISA kits according to the manufacturer's instructions.

[11] = test system: mice with ischemic AKI (bilateral renal IRI); assay: Renal IRI model: renal vasodilation and renal Doppler flux (RBF); format: in vivo, C57/BL6 mice; details: 24 h following IRI
Description: The inner arteriolar area of the outer medulla was determined using α-smooth muscle actin (α-SMA)-stained sections. Kidneys were removed without perfusion under inhalational isoflurane anesthesia, divided into three pieces horizontally, immediately fixed in 10% formalin, and then embedded in paraffin. The inner area of α-SMA-positive vessels in the outer medulla was measured using ImageJ. The results are expressed as average areas of renal arteries in the outer medulla. As a surrogate for RBF, we used noninvasive laser Doppler flowmetry (periflux system 5000, Perimed) to measure flux, placing laser-Doppler probes at a fixed position on the kidney surface and recording renal cortical measurements. […] The relative increase represents the percent increase in RDF from baseline to peak for each test.

[12] = test system: mice with ischemic AKI (bilateral renal IRI); assay: Renal IRI model: cAMP, AMP and adenosine levels; format: in vivo, C57/BL6 mice; details: 24 h post-IRI, vs sham mice
Description: After reperfusion for 24 h, kidney tissues were harvested, homogenized in 10 volumes of 0.1 M HCl, and centrifuged for 10 min at 12,000 rpm. cAMP levels in kidney tissues and serum were measured using a cAMP Complete ELISA kit (Enzo Life Science, Farmingdale, NY). AMP and adenosine in kidney tissue were assessed by Agilent 6410 LC-MS/MS. Serum adenosine was measured using an assay kit (Abnova, Walnut, CA).

[13] = test system: mice with ischemic AKI (bilateral renal IRI); assay: Renal IRI model: PGE2 (EP1-EP4) and adenosine A2A receptor expression; format: in vivo, C57/BL6 mice; details: 24 h post-IRI
Description: PGE2 receptors (EP1, EP2, EP3, and EP4) and adenosineA2A receptor mRNA levels were deter-mined by real-time PCR. Their protein levels were determined by Western blot assay and immunofluorescence analysis.

[14] = iodixanol 10 gI/kg + vehicle, 48 h after CM

## CC(=O)N(CC(O)CN(C(C)=O)c1c(I)c(C(=O)NCC(O)CO)c(I)c(C(=O)NCC(O)CO)c1I)c1c(I)c(C(=O)NCC(O)CO)c(I)c(C(=O)NCC(O)CO)c1I (stereo not drawn) [Visipaque, iodixanol]
mice; 48 h
  necrosis and apoptosis (Renal injury score and TUNEL assay) vs normal control: significantly higher
mice; 48 h after administration
  Cr vs normal control: elevation
  KIM-1 vs normal control: elevation
  NGAL vs normal control: elevation
[1]; [14]
  serum KIM-1 in CM-treated mice: 1.41 ± 0.41 ng/mL
  serum NGAL in CM-treated mice: 299.71 ± 38.64 ng/mL
  serum creatinine in CM-treated mice: 1.94 ± 0.24 mg/dL
[2]
  cell viability (MTT), in words: significantly lower
[3]; iodixanol 50 mgI/mL, 24 h
  increase of apoptosis rate of hRPTECs in the CM group compared to the normal group: more than 2.5 times

## CCCCC[C@H](O)/C=C/[C@H]1[C@H](O)CC(=O)[C@@H]1C/C=C\CCCC(=O)O [PGE2, prostaglandin E2]
[4]
  TUNEL-positive cell proportions vs CIAKI mice, in words: significantly lower
  vascular congestion in the outer medullary region (gross findings): less-congested
[4]; CM + drug, score 0-4
  microscopic renal injury score: 1.55±0.14
[2]
  cell viability (MTT), in words: did not show any difference
[3]; drug with iodixanol 50 mgI/mL, 24 h
  apoptosis rate of hRPTECs: 19.43±1.38%
[5]; CM + drug, 48 h after CM
  RBF (renal Doppler flux): 541.4±22.65
[6]
  AMP level compared to CIAKI mice, in words: increased
  adenosine level compared to CIAKI mice, in words: increased
[7]
  estimated half-life: less than 15 s

## CC(C(=O)Nc1cc(C#N)ccc1CCCC(=O)O)c1ccc(F)c2ccccc12 (stereo not drawn) [ONO-AE3-208]
[8]; ONO-AE3-208 10 mg/kg co-administered with the three-dose schedule of SW033291 in IRI mice
  beneficial effects of SW033291 on BUN, serum creatinine, serum Kim-1 and RDF-inferred RBF: substantially blocked
[1]; CIAKI mice (FIG. 15E), SW033291 line = CM + SW033291, ONO-AE3-208 line = CM + ONO-AE3-208 + SW033291
  serum creatinine, absence or presence of ONO-AE3-208: 1.51 ± 0.31 mg/dL
[1]; CIAKI mice (FIG. 15F), SW033291 line = CM + SW033291, ONO-AE3-208 line = CM + ONO-AE3-208 + SW033291
  serum NGAL, absence or presence of ONO-AE3-208: 229.85 ± 27.12 ng/mL
[1]; CIAKI mice (FIG. 15G), SW033291 line = CM + SW033291, ONO-AE3-208 line = CM + ONO-AE3-208 + SW033291
  serum KIM-1, absence or presence of ONO-AE3-208: 0.85 ± 0.26 ng/mL
[5]; ONO-AE3-208 with SW033291 (FIG. 15H)
  increase in RBF by SW033291 treatment: blocked the increase

## CCCCC[C@H](O)/C=C/[C@H]1[C@H](O)CC(=O)[C@@H]1CCCCCCC(=O)O [PGE1, prostaglandin E1]
[1]; CIAKI mice, 48 h after CM
  serum creatinine, effect in words: decreased
[4]
  TUNEL-positive cell proportions vs CIAKI mice, in words: significantly lower
  renal injury score, effect in words: No reduction
  vascular congestion in the outer medullary region (gross findings): prominent vascular congestion
[2]
  cell viability (MTT), in words: did not show any difference
[3]; PGE1 100 ng/mL with iodixanol 50 mgI/mL
  apoptotic rate vs CM vehicle group, in words: no differences
[5]; 48 h after CM
  preservation of RBF from CM-induced reduction, in words: did not

## COc1ccc2c(c1)c(CC(=O)O)c(C)n2C(=O)c1ccc(Cl)cc1 [indomethacin, reference compound]
[8]; 24 h after renal IRI, vs IRI-vehicle mice, dosing before and after IRI
  BUN (serum): increase
[9]
  tissue congestion in the outer medulla (gross pathology): worsened
[10]
  HMGB1 levels in kidney tissue: increased
[11]
  RDF-inferred RBF: reduced
[12]
  renal cAMP: reduced
[13]
  EP1 receptor mRNA levels: increased
  EP4 receptor mRNA levels: reduced
  levels of EP2 receptors: no effect
  levels of EP3 receptors: no effect
